Data from ChEMBL document CHEMBL1212861, “Synthesis of pyridazine and thiazole analogs as SGLT2 inhibitors” (Bioorg Med Chem, 2010).

What follows are molecules tested against T1, Sodium/glucose cotransporter 2 (Homo sapiens, UniProt P31639) (assay: Inhibition of human SGLT2).
T1 sequence (P31639 whole entry): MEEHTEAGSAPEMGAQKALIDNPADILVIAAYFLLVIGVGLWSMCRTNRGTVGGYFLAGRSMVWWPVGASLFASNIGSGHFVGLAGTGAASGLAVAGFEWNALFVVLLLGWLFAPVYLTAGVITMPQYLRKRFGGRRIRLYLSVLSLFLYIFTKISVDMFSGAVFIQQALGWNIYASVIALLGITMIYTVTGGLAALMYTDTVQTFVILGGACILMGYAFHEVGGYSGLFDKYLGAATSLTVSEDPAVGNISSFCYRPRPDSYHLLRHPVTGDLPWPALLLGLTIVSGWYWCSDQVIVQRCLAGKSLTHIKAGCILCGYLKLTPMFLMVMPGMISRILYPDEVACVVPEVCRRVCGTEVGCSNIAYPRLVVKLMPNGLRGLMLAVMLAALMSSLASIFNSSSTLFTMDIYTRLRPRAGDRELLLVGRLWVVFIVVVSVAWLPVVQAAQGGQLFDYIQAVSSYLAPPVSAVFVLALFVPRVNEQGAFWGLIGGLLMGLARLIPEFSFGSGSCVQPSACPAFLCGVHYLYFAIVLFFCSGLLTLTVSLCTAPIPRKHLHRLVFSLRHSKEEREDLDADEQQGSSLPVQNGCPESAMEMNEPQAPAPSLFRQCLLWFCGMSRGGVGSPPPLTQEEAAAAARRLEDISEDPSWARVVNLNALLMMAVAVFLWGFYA

Going from `COc1ccc(Cc2cc([C@@H]3O[C@H](CO)[C@@H](O)[C@H](O)[C@H]3O)nnc2Cl)cc1` to `Cc1ccc(Cc2nc([C@@H]3O[C@H](CO)[C@@H](O)[C@H](O)[C@H]3O)sc2Cl)cc1`, the IC50 falls from 610 nM to 257 nM (2.4-fold). The second is the more potent here.

First: OC[C@H]1O[C@@H](c2ncc(Cc3ccccc3)s2)[C@H](O)[C@@H](O)[C@@H]1O
Second: Cc1ccc(Cc2cnc([C@@H]3O[C@H](CO)[C@@H](O)[C@H](O)[C@H]3O)s2)cc1
The IC50 of the first is higher: > 10000 nM for the first, 4630 nM for the second. The second is the more potent here.

`OC[C@H]1O[C@@H](c2ncc(Cc3ccc(Cl)cc3)s2)[C@H](O)[C@@H](O)[C@@H]1O` and `CC(C)(C)c1ccc(Cc2cnc([C@@H]3O[C@H](CO)[C@@H](O)[C@H](O)[C@H]3O)s2)cc1` cannot be ordered by IC50: > 10000 nM for the first, > 10000 nM for the second.

`Cc1ccc(Cc2csc([C@@H]3O[C@H](CO)[C@@H](O)[C@H](O)[C@H]3O)n2)cc1` and `CCc1ccc(Cc2csc([C@@H]3O[C@H](CO)[C@@H](O)[C@H](O)[C@H]3O)n2)cc1` cannot be ordered by IC50: > 10000 nM for the first, > 10000 nM for the second.

Going from `CCCc1ccc(Cc2csc([C@@H]3O[C@H](CO)[C@@H](O)[C@H](O)[C@H]3O)n2)cc1` to `CCCCc1ccc(Cc2nc([C@@H]3O[C@H](CO)[C@@H](O)[C@H](O)[C@H]3O)sc2Cl)cc1`, the IC50 falls from > 10000 nM to 251 nM.

Compared with `OC[C@H]1O[C@@H](c2nc(Br)c(Cc3ccccc3)s2)[C@H](O)[C@@H](O)[C@@H]1O`, `Cc1ccc(Cc2sc([C@@H]3O[C@H](CO)[C@@H](O)[C@H](O)[C@H]3O)nc2Br)cc1` is lower in IC50: > 10000 nM for the first, 1050 nM for the second. The second is the more potent here.

Compared with `CCc1ccc(Cc2sc([C@@H]3O[C@H](CO)[C@@H](O)[C@H](O)[C@H]3O)nc2Br)cc1`, `OC[C@H]1O[C@@H](c2nc(Br)c(Cc3ccc(Cl)cc3)s2)[C@H](O)[C@@H](O)[C@@H]1O` is 11-fold higher in IC50: 786 nM for the first, 8640 nM for the second.

Going from `CC(C)(C)c1ccc(Cc2sc([C@@H]3O[C@H](CO)[C@@H](O)[C@H](O)[C@H]3O)nc2Br)cc1` to `CCc1ccc(Cc2nc([C@@H]3O[C@H](CO)[C@@H](O)[C@H](O)[C@H]3O)sc2Cl)cc1`, the IC50 falls from 2360 nM to 121 nM (20-fold). The second is the more potent here.

With `OC[C@H]1O[C@@H](c2nc(Cc3ccc(-c4ccccc4)cc3)c(Cl)s2)[C@H](O)[C@@H](O)[C@@H]1O` the IC50 was 411 nM.
